# {Cy3} = Cy3 dye attached by click chemistry
# B1: Bcr1 dsRNA: dsRNA hairpin targeting the Bcr1 gene (ACYPI32128), SEQ ID NO: 93 (nucleic acid, listed as Acyrthosiphon pisum)
# chain: AUGAAACUGCUGCAUGGCUUUCUGAUUAUUAUGCUGACCAUGCAUCUGAGCAUUCAGUAUGCGUAUGGCGGCCCGUUUCUGACCAAAUAUCUGUGCGAUCGCGUGUGCCAUAAACUGUGCGGCGAUGAAUUUGUGUGCAGCUGCAUUCAGUAUAAAAGCCUGAAAGGCCUGUGGUUUCCGCAUUGCCCGACCGGCAAAGCGAGCGUGGUGCUGCAUAACUUUCUGACCAGCCCGUUUUUUUUUUCGGGCUGGUCAGAAAGUUAUGCAGCACCACGCUCGCUUUGCCGGUCGGGCAAUGCGGAAACCACAGGCCUUUCAGGCUUUUAUACUGAAUGCAGCUGCACACAAAUUCAUCGCCGCACAGUUUAUGGCACACGCGAUCGCACAGAUAUUUGGUCAGAAACGGGCCGCCAUACGCAUACUGAAUGCUCAGAUGCAUGGUCAGCAUAAUAAUCAGAAAGCCAUGCAGCAGUUUCAU
# How the values were obtained:
# Myzus persicae [1] = experiment: Cy3-PNA in artificial diet, aphid survival (Example 13); assay type: in vivo; conditions: Myzus persicae second and third instar, final 0.5 to 10 mg/L Cy3-PNA, fed 24 hr, mortality checked every 24 h for 4 days
# Procedure: Therapeutic Design: Cy3-PNA Solutions are Formulated with 0, 0.5, 1, 5 or 10 mg/L of Cy3-PNA from Example 11 in 10 mL of 0.5% Sucrose and Essential Amino Acids.
# (§1) To prepare for the treatment, aphids are grown in a lab environment and medium. In a climate-controlled room (16 h light photoperiod; 60±5% RH; 20±2° C.), plants are grown in a mixture of vermiculite and perlite and are infested with aphids. To limit maternal effects or health differences between plants, 5-10 adults from different plants are distributed among 10 two-week-old plants, and allowed to multiply to high density for 5-7 days. For experiments, second and third instar aphids are collected from healthy plants and divided into treatments so that each treatment receives approximately the same number of individuals from each of the collection plants.
# Wells of a 96-well plate are filled with 200 μl of artificial aphid diet (Febvay et al., Canadian Journal of Zoology 66(11):2449-2453, 1988) and the plate is covered with parafilm to make a feeding sachet. Artificial diet is either mixed with the solution of sterile water with 0.5% sucrose and essential amino acids only as a negative control, or mixed with Cy3-PNA solutions. Cy3-PNA solutions are mixed with artificial diet to obtain final concentrations between 0.5 to 10 mg/L. […]
# [2] = system: its target bacterial strains; conditions: against its target bacterial strains; cited from earlier work
# Rhopalosiphum maidis = experiment: Bcr1 dsRNA in artificial diet, aphid survival (Example 3); assay type: in vivo; conditions: Rhopalosiphum maidis second and third instar, final 0.5 to 5 μg/ml dsRNA, fed 24 hr, mortality checked every 24 h for 4 days
# Procedure: (§2) Aphids are one of the most important agricultural insect pests. They cause direct feeding damage to crops and serve as vectors of plant viruses. In addition, aphid honeydew promotes the growth of sooty mold and attracts nuisance ants. The use of chemical treatments, unfortunately still widespread, leads to the selection of resistant individuals whose eradication becomes increasingly difficult. Therapeutic design: dsRNA solutions are formulated with 0 (negative control), 0.5, 1, or 5 μg/ml of Bcr1 dsRNA from Example 2 in 10 mL of TE buffer with 0.5% sucrose and essential amino acids.
# as §1, with “C.), fava bean” for “C.),”, “plants. […]” for “plants.”
# Myzus persicae [3] = experiment: Bcr1 dsRNA in artificial diet, aphid survival (Example 9); assay type: in vivo; conditions: Myzus persicae second and third instar, final 0.5 to 5 μg/ml dsRNA, fed 24 hr, mortality checked every 24 h for 4 days
# Procedure: as §2, with “μg/mL” for “μg/ml”, “7” for “2”
# as §1, with “(16 hr” for “(16 h”, “plants. […]” for “plants.”
molecule,measurement,setting,value
"Cy3-Gaatgcagctgc (antisense GAATGCAGCTGC; all peptide nucleic acid (PNA), 5' {Cy3}; Cy3 attached via DBCO-azide click chemistry) [Cy3-PNA, antisense PNA against bacteriocyte target gene Bcr1 joined to Cy3 dye through click chemistry]",survival rate of aphids compared to the control treated aphids,Myzus persicae [1],decreased
ITSISLCTPGCKTGALMGCNMKTATCHCSIHVSK [nisin],concentration showing antimicrobial activity,[2],single-digit nanomolar concentration
B1,survival rate of aphids compared to the control treated aphids,Rhopalosiphum maidis,decreased
same,survival rate of aphids compared to the control treated aphids,Myzus persicae [3],decreased

# From patent US11974574B2, “Compositions and related methods for modulating endosymbionts” (Flagship Pioneering Innovations V, Inc., priority 2017, dated 2024)
